Where a name gives a salt, the structure may show the parent alone.
What was measured:
HEK293 cells [1] = assay: Photo-control of p53-EGFP nuclear import, live cell imaging; assay type: cell-based, human; conditions: photolysis 5 s, 365 nm, 1.2 mW/cm^2; amino acid at position 305 of p53
Experimental: Fluorescence confocal micrographs showing the cellular localization of the EGFP fusions of wild-type p53, p53-K305A. D. Confocal micrographs showing the cellular localization of the EGFP fusions before and 50 min after photolysis (5 s; 365 nm; 1.2 mW/cm^2).
For live cell imaging, cells were seeded and transfected in μ-Dish (Ibidi). Live cells were imaged at room temperature with a Zeiss LSM 710 Laser Scanning Microscope equipped with a Plan Apochromat 63×/1.4 oil immersion objective. […] The mean nuclear (Fn) and cytoplasmic (Fc) fluorescence intensities were quantified using ImageJ software to enable the F(n/c) ratio to be determined according to the formula: F(n/c)=(Fn−Fb)/(Fc−Fb), where Fb is the mean background fluorescence intensity.

MAP kinase pathway = assay: EGFP-ERK2 nuclear translocation upon EGF stimulation; assay type: cell-based, human; conditions: wild-type MEK1
Experimental: FIG. 16 EGFP-ERK2 nuclear translocation upon EGF stimulation. (a) Montage showing EGFP-ERK2 sub-cellular fluorescence at different time points after activation of co-expressed wt-MEK1 by addition of 100 ng/ml EGF. Scale bars represent 5 μm.
When cells expressing wild-type MEK1 and EGFP-ERK2 are stimulated with 100 ng/ml of epidermal growth factor (EGF) the entire MAP kinase pathway is activated and EGFP-ERK2 is translocated to the nucleus. […] We observe substantial cell-to-cell variability in both the t1/2 for import and the maximal ratio of nuclear to cytoplasmic EGFP-ERK2, and, as previously reported (Cohen-Saidon et al., 2009), we observe less variability in the timing of nuclear import than in the fraction of ERK2 in the nucleus following stimulation (Cohen-Saidon et al., 2009) (FIG. 16c,d). The nuclear accumulation of EGFP-ERK2 peaks and then dissipates to pre-stimulus levels, a well known effect in cellular systems known as exact adaptation (Cohen-Saidon et al., 2009). This effect is not understood in molecular detail for EGF signalling, but must involve cellular processes that compensate for EGF stimulation at some—as yet undefined—point or points in the pathway. […]

EGFP-ERK2 = EGFP-ERK2 nuclear translocation upon photo-activation of caged MEK1, live cell imaging; assay type: cell-based, human; conditions: resting cells co-expressing EGFP-ERK2, illuminated
Experimental: Cell culture and transfection—Human embryonic kidney 293ET cells were grown at 37° C. in 5% CO2 atmosphere in DMEM+GlutaMAX-1 medium (Gibco) supplemented with 10% fetal bovine serum (FBS) and 1× pen-strep solution for 24 hours before transfection. Cells were transiently transfected with Genejuice (Novagen) according to the manufacturer's protocol. Cells were serum-starved (DMEM with 0.1% FBS) and grown with 2 mM of the photocaged lysine 1 for 24 h before analysis. Growth medium was replaced with fresh 1-free DMEM supplemented with 0.1% FBS before photo-activation experiments.

sfGFP-his6 = assay: Expression of sfGFP-his6 with unnatural amino acid at amber codon 145; assay type: cell-based, E. coli; conditions: PCKRS/PyltRNACUA pair, 1 (5 mM), amber codon at position 145
Experimental: FIG. 3—A. anti His-tag immunoblot of cell extracts from E. coli cells expressing PCKRS/PyltRNACUA and myoglobin with an amber codon at position 4 (pMyo4TAGHis6) in the presence or absence of 1 mM photocaged lysine 1. B. Coomassie stained gel of Ni-NTA purified sfGFP-his6 from cells containing either the MbPylRS/PyltRNACUA pair and grown with ε-Boc-lysine (BocK) (1 mM), or the PCKRS/PyltRNACUA pair and grown with 1 (5 mM). The unnatural amino acid was introduced into sfGFP in response to an amber codon at position 145. […] C. […] A second peak corresponding to myoglobin with a free lysine is also detected (peak B; obtained mass 18396 Da, expected mass 18395.7 Da). […] D. MS/MS fragmentation of tryptic peptide derived from sfGFP(145-1) (the peptide sequence is shown above the spectrum; MH^+ peptide mass 2145.972 Da). The spectrum confirms the incorporation of 1 at codon 145. The fragmentation sites are illustrated above the spectrum. […] E. ESI-MS analysis of myoglobin produced by PCKRS/PyltRNACUA (with 2 mM 1) after photolysis for 0 min, 1 min and 5 min with 365 nm light (A: caged protein mass 18633.0±1.8 Da, expected mass 18631.7 Da; B: uncaged protein mass 18395.4±0.7 Da, expected mass 18395.7).
To express myoglobin with an incorporated unnatural amino acid, we transformed E. coli DH10B cells with pBKamp-PCKRS and pMyo4TAGPylT-his6. […]

HEK293 cells [2] = assay: Amber suppression of mCherry-TAG-egfp-ha reporter by PCKRS/PyltRNACUA; assay type: cell-based, human; conditions: PCKRS/PyltRNACUA pair, 1 mM, Western blot, versus hTyrtRNACUA
Experimental: Adherent human embryonic kidney (HEK)-293 cells were cultured at 37° C. in a 5% CO2 atmosphere in DMEM+GlutaMAX-1 medium (Gibco) supplemented with 10% FBS and 1× pen-strep solution. Cells were transiently transfected with Genejuice (Novagen) according to the manufacturer's protocol. Double transfections were performed using equal amount of both plasmids. Before transfection, medium was replaced by fresh antibiotic-free medium supplemented, when necessary, with the unnatural amino acid (see figure legends for concentrations). Cells were analyzed 24 h after transfection. For western blot analysis, cells were washed with cold PBS, then lysed with universal lysis buffer (Roche) at 4° C. for 10 min. Western Blots were performed using antibodies against HA-tag (Sigma), Flag-tag (Cell signaling), Ds-Red (Clontech) or p53 (Abcam).
For imaging cells expressing mCherry-TAG-EGFP-HA, cells were seeded and transfected in 24-well plates. Laser-scanning confocal microscopy was performed using a Bio-Rad Radiance 2100 system mounted on a Nikon Eclipse TE300 inverted microscope equipped with a Plan Fluor ELWD 20×/0.45 objective. Fluorescence emission was measured between 515-530 nm for EGFP (excitation wavelength: 488 nm) and above 560 nm for mCherry (excitation wavelength: 543 nm).

[3] = Decaging of myoglobin containing 1 by 365 nm photolysis, ESI-MS; assay type: physicochemical; conditions: myoglobin containing 1, in vitro
Experimental: FIG. 3—A. anti His-tag immunoblot of cell extracts from E. coli cells expressing PCKRS/PyltRNACUA and myoglobin with an amber codon at position 4 (pMyo4TAGHis6) in the presence or absence of 1 mM photocaged lysine 1. B. Coomassie stained gel of Ni-NTA purified sfGFP-his6 from cells containing either the MbPylRS/PyltRNACUA pair and grown with ε-Boc-lysine (BocK) (1 mM), or the PCKRS/PyltRNACUA pair and grown with 1 (5 mM). The unnatural amino acid was introduced into sfGFP in response to an amber codon at position 145. […] C. […] A second peak corresponding to myoglobin with a free lysine is also detected (peak B; obtained mass 18396 Da, expected mass 18395.7 Da). […] D. MS/MS fragmentation of tryptic peptide derived from sfGFP(145-1) (the peptide sequence is shown above the spectrum; MH^+ peptide mass 2145.972 Da). […]
Protein total mass was determined on an LCT time-of-flight mass spectrometer with electrospray ionization (ESI, Micromass). […] Theoretical masses of wild-type proteins were calculated using Protparam (http://us.expasy.org/tools/protparam.html), and theoretical masses for unnatural amino acid containing proteins were adjusted manually.
For the analysis of the uncaging process, purified myoglobin was photolysed at 365 nm with a high power LED source module at 365 nm (Black-led-365, Prizmatix). Protein total mass was then determined as described above.

MEK1 [4] = conditions: C-MEK1-ΔN cells, 10 μM U0126 for 30 min before illumination
Experimental: (a) HEK293ET cells co-transfected with plasmids encoding PCKRS, pyrrolysyl tRNACUA, C-MEK1-ΔN-HA and EGFP-ERK2 (either TEY, lanes 7 and 8; or AAA, lanes 9 and 10) were grown in medium supplemented with 2 mM of amino acid 1 (lanes 8 and 10) or without (lanes 7 and 9) for 24 h. […] (b) HEK293ET cells co-transfected with plasmids encoding PCKRS, pyrrolysyl tRNACUA, EGFP-ERK2 and either A-MEK1-ΔN-HA (lane 2), or D-MEK1-ΔN-HA (lanes 3-6), or C-MEK1-ΔN-HA (lanes 7-10) were grown in medium supplemented with 2 mM of 1 and 0.1% FBS for 24 h. Cells expressing D-MEK1-ΔN-HA and C-MEK1-ΔN-HA were illuminated with a 365 nm LED lamp for 60 s. Cells were lysed 1, 10 and 60 min after illumination. (c) HEK293ET cells co-transfected with plasmids encoding PCKRS, pyrrolysyl tRNACUA, EGFP-ERK2 and either A-MEK1-ΔN-HA (lane 2), or D-MEK1-ΔN-HA (lanes 3, 5, 6, 9, 10, 13, 14, 17, 18) or C-MEK1-ΔN-HA (lanes 4, 7, 8, 11, 12, 15, 16, 19, 20) were grown in medium supplemented with 2 mM of amino acid 1 and 0.1% FBS for 24 h. […]
Immunoblotting—Cells were washed with ice-cold phosphate buffer saline (PBS), then lysed with ice-cold universal lysis buffer (Roche) supplemented with protease inhibitors cocktail (Roche), 1 mM sodium vanadate, 5 mM sodium fluoride and 10 mM EDTA. Samples were resolved by SDS-PAGE and analyzed by immunoblotting with appropriate antibodies after transferring to nitrocellulose membranes.

MEK1 [5] = tested on: MEK1
Experimental: ERK2 nucleocytoplasmic shuttling. (a) HEK293ET cells co-expressing C-MEK1-DD and EGFP-ERK2 were illuminated (2 s, 365 nm, 1 mW/cm^2), then 8 minutes after illumination, U0126 (10 μM) was added to block the activity of photoactivated C-MEK1-DD and unveil EGFP-ERK2 efflux from the nucleus. […] Scale bars represent 5 μm. (b) The graph presents the normalized F(n/c) as a function of time after illumination (mean±SD of ten representative cells). The arrow indicates the time when U0126 was added.
To unveil this compensating process and visualize ERK2 nuclear export, we induced EGFP-ERK2 nuclear translocation by C-MEK1-DD photoactivation, and then blocked MEK1-induced ERK2 nuclear translocation by addition of the MEK1 inhibitor U0126.
Live cell imaging—Live cells grown in μ-Dish (Ibidi) were imaged at room temperature with an inverted Zeiss LSM 710 Laser Scanning Microscope equipped with a Plan Apochromat 63×/1.4 oil immersion objective. […] The mean nuclear (Fn) and cytoplasmic (Fc) fluorescence intensities were quantified using ImageJ software to enable the F(n/c) ratio to be determined according to the formula: F(n/c)=(Fn−Fb)/(Fc−Fb), where Fb is the mean background fluorescence intensity.

[6] = tested on: EGFP-ERK2 and endogenous ERK1/2; assay: Immunoblot of ERK, p90RSK and Elk-1 phosphorylation upon photo-activation of caged MEK1; assay type: cell-based, human
From the text: MEK1 is highly specific for the downstream extracellular signal-regulated protein kinases ERK1 and ERK2, and has no other known substrates (Shaul and Seger, 2007). MEK1 phosphorylates two regulatory residues in ERK1/2, a threonine and a tyrosine, both part of a conserved Thr-Glu-Tyr (TEY) motif (Payne et al., 1991). To verify that the introduction of the photocaged lysine 1 prevents kinase activity, C-MEK1-ΔN was co-expressed with ERK2 fused to an enhanced green fluorescence protein (EGFP-ERK2) in resting HEK293ET cells.
To activate C-MEK1-ΔN we illuminated cells producing the protein for one minute using a 365 nm light-emitting diode (LED) lamp placed underneath the culture plate. This method allows us to illuminate a sufficient number of cells for western blot analysis with monochromatic light that avoids sample heating. […] We observed more phosphorylated EGFP-ERK2 than phosphorylated endogenous ERK1/2. This is consistent with the fact that only a subset of cells contain EGFP-ERK2 and C-MEK1-ΔN, via transfection, while essentially all cells contain endogenous ERK1/2. […] EGFP-ERK2 levels in transfected cells are lower-than or equal to that of the endogenous ERKs. […]

For `N[C@@H](Cc1ccc(O)cc1)C(=O)O` [tyrosine], the “p53 localization following photolysis” value (HEK293 cells [1]) was “did not localize to the nucleus”.

For “EGF: Recombinant human epidermal growth factor, purchased from Gibco”, the “lag phase prior to rapid nuclear accumulation of EGFP-ERK2” value (MAP kinase pathway; 100 ng/ml EGF) was 3 min and the “t1/2 of EGFP-ERK2 nuclear translocation” value (MAP kinase pathway; EGF-stimulated activation of the whole pathway, 100 ng/ml) was 4.5 min.

In the case of “wt-MEK1: wild-type MEK1 [reference compound]”, the “EGFP-ERK2 nuclear translocation upon illumination” value (EGFP-ERK2) is reported as “no nuclear translocation was observed”.

In the case of `CC(OC(=O)NCCCC[C@H](N)C(=O)O)c1cc2c(cc1[N+](=O)[O-])OCO2` (stereo partly drawn) [compound 1, (2S)-2-Amino-6-{([1-(6-nitrobenzo[d][1,3]dioxol-5-yl)ethoxy]carbonylamino}hexanoic acid TFA salt], the “yield of sfGFP-his6 obtained by incorporation” value (sfGFP-his6) is reported as 1 mg/L, the efficiency of incorporation (HEK293 cells [2]) is reported as “comparable to the efficiency of incorporation of tyrosine” and the “decaging upon irradiation with 365 nm light” value [3] is reported as “efficiently decaged”.

In the case of `N#CC(=C(/N)Sc1ccccc1N)/C(C#N)=C(\N)Sc1ccccc1N` [U0126], the “increase of endogenous phosphorylated p90RSK and Elk-1 after illumination” value (MEK1 [4]) is reported as “not observed”, the “t1/2 of loss of EGFP nuclear fluorescence” value (MEK1 [5]; 10 μM added 8 min after C-MEK1-DD photoactivation) is reported as < 3 min and the “effect on EGFP-ERK2 nuclear accumulation” value (MEK1 [5]; 10 μM added before illumination, C-MEK1-DD cells) is reported as “significantly blocked nuclear accumulation”.

B1: D-MEK1-ΔN: dead MEK1 with deletion Δ30-49 and mutation K97M (protein, UniProt Q02750 1-393, looked up, variant del30-49 K97M)
Dual specificity …: MPKKKPTPIQLNPAPDGSAVNGTSSAETNLEAFLTQKQKVGELKDDDFEKISELGAGNGGVVFKVSHKPSGLVMARMLIHLEIKPAIRNQIIRELQVLHECNSPYIVGFYGAFYSDGEISICMEHMDGGSLDQVLKKAGRIPEQILGKVSIAVIKGLTYLREKHKIMHRDVKPSNILVNSRGEIKLCDFGVSGQLIDSMANSFVGTRSYMSPERLQGTHYSVQSDIWSMGLSLVEMAVGRYPIPPPDAKELELMFGCQVEGDAAETPPRPRTPGRPLSSYGMDSRPPMAIFELLDYIVNEPPPKLPSGVFSLEFQDFVNKCLIKNPAERADLKQLMVHAFIKRSDAEEVDFAGWLCSTIGLNQPSTPTHAAGV
modifications: HA tag
notes: dead MEK1 with deletion Δ30-49 and mutation K97M
In the case of B1, the “phosphorylation of EGFP-ERK2 or endogenous ERK1/2 after illumination” value ([6]; 365 nm LED illumination) is reported as “no detectable phosphorylation” and the “endogenous phosphorylated p90RSK and Elk-1 after illumination” value ([6]; resting cells co-expressing EGFP-ERK2, 60 s 365 nm) is reported as “not observed”.

B2: D-MEK1-DD: catalytically dead MEK1 mutant with S218D, S222D and K97M (protein, UniProt Q02750 1-393, looked up, variant S218D S222D K97M)
Dual specificity …: MPKKKPTPIQLNPAPDGSAVNGTSSAETNLEALQKKLEELELDEQQRKRLEAFLTQKQKVGELKDDDFEKISELGAGNGGVVFKVSHKPSGLVMARMLIHLEIKPAIRNQIIRELQVLHECNSPYIVGFYGAFYSDGEISICMEHMDGGSLDQVLKKAGRIPEQILGKVSIAVIKGLTYLREKHKIMHRDVKPSNILVNSRGEIKLCDFGVSGQLIDDMANDFVGTRSYMSPERLQGTHYSVQSDIWSMGLSLVEMAVGRYPIPPPDAKELELMFGCQVEGDAAETPPRPRTPGRPLSSYGMDSRPPMAIFELLDYIVNEPPPKLPSGVFSLEFQDFVNKCLIKNPAERADLKQLMVHAFIKRSDAEEVDFAGWLCSTIGLNQPSTPTHAAGV
modifications: HA tag
notes: catalytically dead MEK1 mutant with S218D, S222D and K97M
For B2, the “EGFP-ERK2 nuclear translocation upon illumination” value (EGFP-ERK2) was “no nuclear translocation was observed”.
